Results published in patent publication US10912780B2, “Heterocyclic compounds useful as anti-bacterial agents and method for production thereof” (Bugworks Research, Inc., priority 2017, dated 2021).
Converted amounts (≈) assume the structure as drawn. “And” between values parts separate entries of the source, which are not always exact repeats. Identical values can stand only once.

Legend:
[1] = test system: E. coli [ATCC25922]; test: Urinary tract infection (UTI) rat model; assay type: in vivo; conditions: 30 mg/kg, i.v. bolus, rat UTI, 24 h post infection
Protocol: The purpose of this study is to assess the efficacy of Example 15 against E. coli [ATCC25922] following single dose intravenous infusion doses of 3, 10 and 30 mg/kg in a Urinary Tract Infection Rat Model
Prior to the start of the infection process all animals were divided into different groups. All grouped cages of animals were carried to a procedure room, close to a biological safety cabinet. All infections were conducted in a biological safety cabinet, with appropriate personnel protection. Animals were anaesthetized by intraperitoneal injection of ketamine & xylazine (60+10 mg/kg i.p.) cocktail. Once the animals were in a sufficiently deep plane of anaesthesia as monitored by pedal reflex, the abdominal wall of each rat was shaved with electric clippers and the skin was cleansed with 10% povidine iodine. After a 1.5 to 2 cm lower abdominal wall incision, the abdominal wall muscles were separated with blunt dissection. […] After the replacement of the bladder to its original location, the abdominal muscles were approximated using suture and the skin was closed. The wounds were cleansed using 10% povidine iodine.
The IV formulation vehicle used was 10% of L-ascorbic acid in fresh MilliQ water (w/v) with pH adjusted to 4.0 with 1N Sodium hydroxide solution (w/v), and the dose volume was 10 mL/kg. Meropenem was prepared in MilliQ water and the pH of solution was adjusted to 4.5 using HCl. Four hours post infection, animals were dosed intravenously, as single doses (for test compounds), as a constant rate infusion, under Ketamine 60 mg/kg IP+Xylazine 10 mg/kg IP anesthesia, at a dose volume of 10 ml/kg, at the rate of 0.03 ml/min. The dose levels of the test compounds were 3, 10 and 30 mg/kg. Meropenem was administered as a single bolus dose at a dose volume of 5 ml/kg. All the animals were sacrificed at 24 h post infection, as specified in experimental design, by an overdose of CO2 in an appropriate exposure chamber. The group 1 animals were sacrificed at 4 h post infection.
The euthanized animals were dipped into 70% ethanol for surface decontamination. The organs were removed aseptically; the bladder was cut away near the urethra, and the kidneys were removed by blunt dissection to avoid bleeding. The bladder and each kidney separately were be homogenized in PBS. The CFU per milliliter homogenate of bladder, & kidney were determined after 18 to 24 h of incubation at 37° C.

[2] = test system: A. baumannii clinical strains; test: Antibacterial susceptibility studies (MIC50 and MIC90) with clinical strains, CLSI guidelines; assay type: cell-based
[3] = test system: P. aeruginosa clinical strains; test: as above; assay type: cell-based
[4] = test system: E. cloacae clinical strains; test: as above; assay type: cell-based
[5] = test system: E. coli clinical strains; test: as above; assay type: cell-based
[6] = test system: P. aeruginosa [ATCC27853]; test: Neutropenic lung infection model in rat; assay type: in vivo; conditions: 30 mg/kg, i.v. bolus, neutropenic rat, 24 h post infection
Protocol: The purpose of this study was to evaluate the efficacy of example 15 against P. aeruginosa [ATCC27853], following single dose intravenous infusion doses of 10, 30 and 100 mg/kg in a neutropenic lung infection model in rats
Prior to the start of the infection process, all animals were divided into different groups. All grouped cages of animals were carried to a procedure room, close to a biological safety cabinet. All infections were conducted in a biological safety cabinet, with appropriate personnel protection. Animals were placed into an induction chamber and anaesthesia was induced by exposing the animals to 3-5% Isoflurane in an oxygen flow set at approximately (˜) 1 liter per minute (LPM). Once the animals were in a sufficiently deep plane of anaesthesia as monitored by pedal reflex, they were removed and infected (2). […] A gentle mixing of inoculum between two animals was followed for uniform distribution.
The IV formulation vehicle used for example 15 was 10% of L-ascorbic acid in fresh MilliQ water (w/v) with pH adjusted to ˜4.0 with 1N Sodium hydroxide solution (w/v), and the dose volume was 10 mL/kg. Meropenem was formulated in saline. […] The dose levels of the test Example 15 were 10, 30 and 100 mg/kg.
All the animals in groups were sacrificed at 24 h post infection, as specified in experimental design, by an overdose of CO2 in an appropriate exposure chamber. The group 1 animals were sacrificed at 4 hrs post infection. The euthanized animals were dipped into 70% ethanol for surface decontamination. Entire Lung was aseptically isolated, weighed and placed into 1 mL of sterile CSDB broth, and homogenized (Omni Tip (220 V hand held)). Serial ten-fold dilutions of the lungs homogenates were prepared in sterile CSD broth and 0.05 mL of four dilutions for each tissue was plated onto CSDA agar plates. Bacterial colonies were enumerated following overnight incubation at 37° C. Bacterial densities were estimated as Log10 CFU/g lung. The Mean±SD Log10 CFU/g lung was estimated in each group. Significant differences between group means and control were analyzed by one way ANOVA, followed by a Dunnett's multiple comparison test, using Graphpad Prism at 95% confidence levels.

[7] = test system: K. pneumoniae clinical strains; test: Antibacterial susceptibility studies (MIC50 and MIC90) with clinical strains, CLSI guidelines; assay type: cell-based
[8] = Enterobacter cloacae, E. cloacae clinical strains (88 strains)

## C[C@@H](O)[C@H]1C(=O)N2C(C(=O)O)=C(S[C@@H]3CN[C@H](C(=O)N(C)C)C3)[C@H](C)[C@H]12 [Meropenem, reference compound]
[1]
  MEAN ± SD (Log10 CFU/g kidneys): 4.41 ± 0.70 Log10 CFU/g kidneys
  Mean Log10 CFU/g kidney reduction (wrt 4 h PI control: 6.03 Log10 CFU/g kidneys): 1.62 Log10 CFU/g kidneys
[1]; bladder
  MEAN ± SD (Log 10 CFU/ml Bladder): 4.34 ± 0.32 Log 10 CFU/ml
  Mean Log10 CFU/ml Bladder reduction (wrt 4 h PI control: 6.49 CFU/ml Bladder): 2.15 Log10 CFU/ml
[1]; individual animals
  Log10 CFU/g (Left Kidney): 4.62 Log10 CFU/g and 4.41 Log10 CFU/g and 5.19 Log10 CFU/g
  Log10 CFU/g (Right Kidney): 4.83 Log10 CFU/g and 3.13 Log10 CFU/g and 4.28 Log10 CFU/g
[1]; individual animals, bladder
  Log 10 CFU/ml Bladder: 4.43 Log 10 CFU/ml and 4.62 Log 10 CFU/ml and 3.99 Log 10 CFU/ml
[2]; A. baumannii reference strain ATCC19606, no unit in this line
  MIC ATCC19606: 0.5 µg/mL (≈ 1.3 µM)
[2]; Acinetobacter baumannii
  MIC50: 8 µg/mL (≈ 20.9 µM)
  MIC90: 32 µg/mL (≈ 83.4 µM)
[2]; lowest MIC among A. baumannii clinical strains (169 strains; Example 15: 132), no unit in this line
  Minimum: 0.03125
[3]; P. aeruginosa reference strain ATCC27853, no unit in this line
  MIC ATCC27853: 0.5 µg/mL (≈ 1.3 µM)
[3]; Pseudomonas aeruginosa
  MIC50: 2 µg/mL (≈ 5.22 µM)
  MIC90: 8 µg/mL (≈ 20.9 µM)
[3]; lowest MIC among P. aeruginosa clinical strains (215 strains; Example 15: 176), no unit in this line
  Minimum: 0.03
[4]; [8]
  MIC50: 0.25 µg/mL (≈ 0.652 µM)
  MIC90: 16 µg/mL (≈ 41.7 µM)
[4]; lowest MIC among E. cloacae clinical strains (88 strains), no unit in this line
  Minimum: 0.06
[5]; E. coli reference strain ATCC25922, no unit in this line (MIC50/MIC90 lines: μg/ml)
  MIC ATCC25922: 0.06 µg/mL (≈ 0.156 µM)
[5]; Escherichia coli
  MIC50: 0.06 µg/mL (≈ 0.156 µM)
  MIC90: 4 µg/mL (≈ 10.4 µM)
[5]; lowest MIC among E. coli clinical strains (201 strains; Example 15: 176), no unit in this line
  Minimum: 0.03
[6]
  MEAN ± SD (Log 10 CFU/g Lung): 5.04 ± 0.14 Log 10 CFU/g Lung
  Mean Log 10CFU/g lung reduction (wrt 4 h PI control 5.78 Log10CFU/g lung): 0.74 Log10CFU/g lung
[6]; individual animals
  Log 10 CFU/g Lung: 5.03 Log 10 CFU/g Lung and 5.18 Log 10 CFU/g Lung and 4.90 Log 10 CFU/g Lung
[7]; K. pneumoniae reference strain ATCC13883, no unit in this line
  MIC ATCC13883: 0.06 µg/mL (≈ 0.156 µM)
[7]; Klebsiella pneumoniae
  MIC50: 1 µg/mL (≈ 2.61 µM)
  MIC90: 16 µg/mL (≈ 41.7 µM)
[7]; lowest MIC among K. pneumoniae clinical strains (211 strains; Example 15: 176), no unit in this line
  Minimum: 0.03
